Reference: PMC12603070, “A high-throughput screening approach to discover potential colorectal cancer chemotherapeutics: repurposing drugs to identify novel disruptors of 14-3-3 proteins” (Cell Death & Disease, 2025)
Structures can show the parent of a compound that is named as a salt. Where two headings read alike, the source gives them in different places.

Tests used:
[1] = target: T1, 14-3-3ζ:BAD-112-136F interactions (Homo sapiens, UniProt P63104); test: BRET sensor screen for disruption of 14-3-3ζ-Rluc8:BAD-112-136F-mCitrine in living NIH-3T3 cells; assay type: cell-based, murine; design: inhibition: dose or concentration left out as unconfirmed; BRET reduction on NIH-3T3: unit not given here; conditions: for inhibition / BRET reduction on NIH-3T3: NIH-3T3 cells, hits from the primary screen; for inhibition / inhibition at 20 µM: read-out: BRET reduction on NIH-3T3
T1 construct: expressed in transfected cells; host or cells: NIH-3T3 fibroblasts, bi-directional pBI-CMV1 plasmid
T1 sequence (P63104 1-245): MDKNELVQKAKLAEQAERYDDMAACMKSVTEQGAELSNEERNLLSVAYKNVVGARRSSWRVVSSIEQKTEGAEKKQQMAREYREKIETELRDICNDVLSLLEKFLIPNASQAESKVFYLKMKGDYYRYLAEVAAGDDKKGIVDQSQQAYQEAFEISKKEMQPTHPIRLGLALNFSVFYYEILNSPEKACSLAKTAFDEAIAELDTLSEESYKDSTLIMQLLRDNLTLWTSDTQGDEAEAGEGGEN
Summary of the method: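 NIH-3T3 cells were transfected with the BRET sensor two days beforehand, then replated on poly-L-ornithine-coated plates and grown 24 h at 37 °C. Medium was then replaced with Krebs buffer (pH 7.4). Z′-score was calculated to judge HTS robustness.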

NIH-3T3 cells = test: Hoechst/propidium iodide cell death assay in NIH-3T3; assay type: cell-based; conditions: for cytotoxicity at 20 µM: Mus musculus, NIH3T3, 24 h, read-out: Percentage of cell death % 24h NIH3t3
Description: (§1) A high-content imaging system (PerkinElmer; Operetta CLS), was used to quantify cell death and apoptosis by calculating the number of propidium iodide-positive cells relative to Hoechst-positive cells, and the number of Annexin V-positive cells relative to Hoechst-positive cells, respectively.

HT-29 cells = test: Hoechst/propidium iodide cell death assay in HT-29; assay type: cell-based, human; conditions: for %Cell death HT-29: time not given; for cytotoxicity at 20 µM: Homo sapiens
Description: as §1

Caco-2 cells = assay type: cell-based; conditions: for Percentage of cell death % 24h CACO-2: 20 µM; for Percentage of cell death % 48h, Caco-2: 20 μM
Description: as §1

[2] = NIH3T3, 3 h, NIH-3T3 expressing BRET sensor, 20 µM, 3 h
[3] = HT-29, 24 h, 20 µM, 24 h, read-out: Percentage of cell death % 24h HT-29
[4] = HT-29, 48 h, HT-29, 48h, 20 μM, read-out: Percentage of cell death % 48h, HT-29

Structure (SMILES)	inhibition ([1]; NIH3T3, 3 h)	inhibition at 20 µM [1, 2]	cytotoxicity at 20 µM (NIH-3T3 cells; 20 µM, 24 h)	Percentage of cell death % 48h, NIH3T3 (NIH-3T3 cells)	%Cell death HT-29 (HT-29 cells; HT-29)	cytotoxicity at 20 µM (HT-29 cells; [3])	cytotoxicity at 20 µM (HT-29 cells; [4])	%Cell death Caco-2 (Caco-2 cells)	Percentage of cell death % 24h CACO-2 (Caco-2 cells)	Percentage of cell death % 48h, Caco-2 (Caco-2 cells)	inhibition at 20 µM ([1]; NIH3T3, NIH-3T3 expressing BRET sensor, 20 µM, 3 h)	BRET reduction on NIH-3T3 [1]	cytotoxicity at 20 µM (NIH-3T3 cells)	cytotoxicity at 20 µM (HT-29 cells; HT-29, 24 h, read-out: Percentage of cell death % 24h HT-29)	cytotoxicity at 20 µM (HT-29 cells; HT-29, 48 h, read-out: Percentage of cell death % 48h, HT-29)	inhibition at 20 µM ([1]; NIH3T3, 3 h)
Cn1ncc(Cl)c1-c1cc(C(=O)N[C@H](CN)Cc2cccc(F)c2)sc1Cl [Afuresertib]	27.8%	27.8%	57.7%	38.6266%	–	3.99%	37.5%	–	23.3726%	43.2801%	–	–	–	–	–	–
C[C@H](CCC(=O)O)[C@H]1CC[C@H]2[C@@H]3CC[C@@H]4C[C@H](O)CC[C@]4(C)[C@H]3CC[C@]12C [Lithocholic Acid]	40.1%	40.1%	2.68%	0.3149%	–	0.614%	2.06%	–	2.024%	1.756%	–	–	–	–	–	–
CCCCCCCCCCCC1=C(O)C(=O)C=C(O)C1=O [Embelin]	37%	37%	69.5%	37.4899%	51.8%	19%	51.8%	1.7%	–	–	–	–	–	–	–	–
CCN(CC)CCOc1ccc(C(=C(Cl)c2ccccc2)c2ccccc2)cc1 [Clomiphene citrate]	38.2%	38.2%	10.1%	58.221%	52.0%	1.46%	52%	34.7%	–	–	–	–	–	–	–	–
Cc1ccc(C(=O)N(CCCN)[C@@H](c2nc3cc(Cl)ccc3c(=O)n2Cc2ccccc2)C(C)C)cc1 [Ispinesib (SB-715992), Ispinesib]	–	–	–	78.7121%	–	–	–	–	86.1725%	89.1796%	44.1%	44.0919	87.5%	50.8%	86.7%	–
O=c1[nH]c2ccccc2n1C1CCN(CCCC(c2ccc(F)cc2)c2ccc(F)cc2)CC1 [Pimozide]	–	–	65.9%	78.5926%	64.6%	11%	64.6%	59.9%	–	–	–	38.4171	–	–	–	38.4%

Now from value to molecule, other results behind:

inhibition ([1]; NIH3T3, 3 h)	inhibition at 20 µM [1, 2]	Structure (SMILES)	cytotoxicity at 20 µM (NIH-3T3 cells; 20 µM, 24 h)	Percentage of cell death % 48h, NIH3T3 (NIH-3T3 cells)	%Cell death HT-29 (HT-29 cells; HT-29)	cytotoxicity at 20 µM (HT-29 cells; [3])	cytotoxicity at 20 µM (HT-29 cells; [4])	%Cell death Caco-2 (Caco-2 cells)	Percentage of cell death % 24h CACO-2 (Caco-2 cells)	Percentage of cell death % 48h, Caco-2 (Caco-2 cells)	inhibition at 20 µM ([1]; NIH3T3, NIH-3T3 expressing BRET sensor, 20 µM, 3 h)	BRET reduction on NIH-3T3 [1]	cytotoxicity at 20 µM (NIH-3T3 cells)	cytotoxicity at 20 µM (HT-29 cells; HT-29, 24 h, read-out: Percentage of cell death % 24h HT-29)	cytotoxicity at 20 µM (HT-29 cells; HT-29, 48 h, read-out: Percentage of cell death % 48h, HT-29)	inhibition at 20 µM ([1]; NIH3T3, 3 h)
28.9%	28.9%	CN(C(=O)CN(CCO)CC(=O)N(C)C(C)(C)Cc1ccccc1)C(C)(C)Cc1ccccc1 [Oxethazaine]	28.2%	9.9556%	53.1%	3.21%	53.1%	13.9%	–	–	–	–	–	–	–	–
25.6%	25.6%	CCCSc1nc(N[C@@H]2C[C@H]2c2ccc(F)c(F)c2)c2nnn([C@@H]3C[C@H](OCCO)[C@@H](O)[C@H]3O)c2n1 [Ticagrelor]	13.7%	5.069%	–	1.2%	3.67%	–	3.005%	3.049%	–	–	–	–	–	–
29.4%	29.4%	CC(C)Oc1ccc(-c2nc(-c3cccc4c3CC[C@@H]4NCCO)no2)cc1C#N [Ozanimod (RPC1063), Ozanimod]	89.9%	87.9452%	–	1.29%	3.92%	–	10.8525%	17.0415%	–	–	–	–	–	–
26.5%	26.5%	COc1cc2nccc(Oc3ccc(NC(=O)Nc4cc(C)on4)c(Cl)c3)c2cc1OC [Tivozanib (AV-951), Tivozanib]	10.8%	31.2285%	–	1.65%	23%	–	5.391%	6.001%	–	–	–	–	–	–
